In PMC7956753, “Development of ^18F-Labeled Radiotracers for PET Imaging of the Adenosine A2A Receptor: Synthesis, Radiolabeling and Preliminary Biological Evaluation” (International Journal of Molecular Sciences, 2021):

Assays:
[1] = In vivo metabolism (radiometabolite analysis of plasma and brain by radio-HPLC); settings: CD-1 mice, i.v., 30 min p.i., n = 2
Protocol: The radiotracer was administered i.v. as bolus in awake CD-1 mice (40 MBq [^18F]PPY1; 30 MBq [^18F]PPY2; n = 2, respectively). At 30 min post injection (p.i.), blood samples were taken retroorbitally from the anesthetized animals. Plasma was separated by centrifugation at 8000 rpm at RT for 1 min (Centrifuge 5418, Eppendorf Vertrieb Deutschland GmbH, Wesseling-Berzdorf, Germany), and brain homogenized in 1 mL water on ice (10 strokes of a PTFE plunge at 1000 rpm in a borosilicate glass cylinder; Potter S Homogenizer; B. Braun Melsungen AG, Melsungen, Germany). For protein precipitation and extraction an ice-cold mixture of acetone/water (4/1; v/v) was used in a ratio of 4:1 (v/v) of solvent to plasma or brain homogenate, respectively. The samples were vortexed for 3 min, equilibrated on ice for 5 min, and centrifuged for 5 min at 10,000 rpm. After separating the supernatant, the precipitates were washed with 100 µL of the solvent mixture and subjected to the same procedure. The combined supernatants were concentrated at 75 °C under nitrogen flow to a final volume of approx. 100 µL and analyzed by analytical radio-HPLC (see section quality control). To determine the percentage of activity in the supernatants compared to total activity, aliquots of each step as well as the precipitates were quantified by a gamma counter (Wallac Wizard 1480; PerkinElmer, Turku, Finland).

[2] = target: T1, A2AR (Mus musculus, UniProt Q60613); experiment: In vitro autoradiography on mouse brain slices; assay type: binding, CD-1 mice; settings: for fraction of total binding displaced by ZM241385 in striatum (specific binding): 10 µM ZM241385
T1 construct: Brains of CD-1 mice frozen in isopentane were cut using a cryostat; from tissue; host or cells: CD-1 mouse brain sections
T1 sequence (Q60613 whole entry): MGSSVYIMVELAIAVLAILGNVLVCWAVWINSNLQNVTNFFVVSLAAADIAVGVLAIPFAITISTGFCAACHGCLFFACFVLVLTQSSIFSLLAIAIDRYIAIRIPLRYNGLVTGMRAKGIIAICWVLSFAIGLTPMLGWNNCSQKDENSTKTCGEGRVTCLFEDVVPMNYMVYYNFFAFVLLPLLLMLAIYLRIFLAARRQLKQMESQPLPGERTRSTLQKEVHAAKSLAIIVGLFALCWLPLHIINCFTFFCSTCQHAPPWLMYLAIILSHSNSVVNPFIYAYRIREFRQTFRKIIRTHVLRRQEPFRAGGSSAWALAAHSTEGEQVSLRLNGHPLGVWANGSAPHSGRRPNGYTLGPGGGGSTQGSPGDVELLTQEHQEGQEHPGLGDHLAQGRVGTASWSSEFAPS
Protocol: Brains of CD-1 mice frozen in isopentane were cut using a cryostat, thaw-mounted onto microscope slides, and after air-drying stored at −80 °C until use. Briefly, the brain sections were dried in a stream of cold air, and pre-incubated in 50 mM TRIS-HCl buffer (pH 7.4, 100 mM NaCl, 5 mM MgCl2, 1 mM EDTA) containing 1 µU/mL adenosine deaminase (ADA) for 15 min at RT. Afterwards, brain sections were incubated with 0.24 MBq/mL of [^18F]PPY1 (0.2 nM) or 0.26 MBq/mL of [^18F]PPY2 (5.1 nM) in buffer for 90 min at RT. Non-specific binding was determined in the presence of 10 µM ZM241385. Displacement of both radiotracers was evaluated with 10 µM PPY1 and PPY2, respectively. Subsequently, the sections were washed twice for 5 min in ice-cold TRIS-HCl buffer, and dipped for 5 s in ice-cold deionized water. The sections were rapidly dried in a stream of cold air before being exposed overnight on an imaging plate. Developed autoradiographs were analyzed in a phosphor imager (HD-CR 35, Duerr NDT GmbH, Bietigheim-Bissingen, Germany). Quantification was performed by using 2D-densitometric analysis (AIDA 2.31 software, raytest Isotopenmessgeräte GmbH, Straubenhardt, Germany).

[3] = Lipophilicity (LogD7.4), shake-flask method in n-octanol/PBS; assay type: physicochemical; settings: pH 7.4, n-octanol-PBS, RT, n = 3
Protocol: (§1) The chemical stability of [^18F]PPY1 and [^18F]PPY2 was investigated in isotonic saline, phosphate-buffered saline (PBS, pH 7.4) and n-octanol by incubation at 37 °C. Samples were taken at 15, 30 and 60 min of incubation time and analyzed by radio-TLC and radio-HPLC. LogD7.4 values of [^18F]PPY1 and of [^18F]PPY2 were experimentally determined in n-octanol/PBS at RT by the shake-flask method. The measurements were performed in triplicate.

[4] = In vitro chemical stability in saline, PBS and n-octanol; assay type: physicochemical; settings: 37 °C up to 60 min
Protocol: as §1

[5] = PET/MR imaging (brain uptake and organ distribution); assay type: in vivo; settings: CD-1 mice; for SUV60 min bladder / SUV60 min small intestine: 60 min; for maximum SUV ratio of striatum-to-cerebellum: after 4 min; for initial brain uptake, standardized uptake value (SUV): between 2 and 3 min; for initial uptake in striatum and cerebellum: followed by a fast washout
Protocol: For the time of the experiments, CD-1 mice were kept in a dedicated climatic chamber with free access to water and food under a 12:12 h dark:light cycle at a constant temperature (24 °C). The animals were anaesthetized (anesthesia unit U-410; agntho’s; Lidingö; Sweden) with isoflurane (1.8%, 0.35 L/min) delivered in a 60% oxygen/40% air mixture (Gas Blender 100 Series, MCQ instruments, Rome, Italy) and maintained at 37 °C with a thermal bed system. The formulated radiotracer was injected into the tail vein ([^18F]PPY1: 3.2–4.3 MBq in 150 µL isotonic saline and <1% EtOH/DMSO; Am: 150 GBq/µmol; […]; Am: 80 GBq/µmol) followed by a 60 min PET/MR scan (PET/MR 1Tesla; nanoScan®, MEDISO Medical Imaging Systems, Budapest, Hungary). Each PET image was corrected for random coincidences, dead time, scatter and attenuation (AC), based on a whole body (WB) MR scan. The list mode data was sorted into sinograms using a framing scheme of 12 × 10 s, 6 × 30 s, 5 × 300 s, […]. The reconstruction parameters for the list mode data were 3D-ordered subset expectation maximization (OSEM), 4 iterations, 6 subsets, energy window: 400–600 keV, coincidence mode: 1–5, ring difference: 81. The mice were positioned prone in a special mouse bed (heated up to 37 °C), with the head fixed to a mouth piece for the anesthetic gas supply with isoflurane in 40% air and 60% oxygen (anesthesia unit: U-410, agnthos, Lidingö, Sweden; Gas blender: MCQ, Rome, Italy). The PET data were collected by a continuous WB scan during the entire investigation. Following the 60 min PET scan a T1 weighted WB gradient echo sequence (TR/TE: 20/6.4 ms, NEX: 1, FA: 25, FOV: 64 × 64 mm, matrix: 128 × 128, slice thickness: 0.5 mm) was performed for AC and anatomical orientation. Image registration and evaluation of the volume of interest (VOI) was done with PMOD 3.9 (PMOD technologies LLC, Zurich, Switzerland). The respective brain regions were identified using the mouse brain atlas template Ma-Benveniste-Mirrione-FDG. Spherical VOI with diameters of 1 to 2 mm were placed at the center of the liver, stomach, and spleen. Small intestine, kidney, and bladder VOI were delineated from the PET signal. Heart wall and blood were delineated from the T1 weighted image avoiding spill over from neighboring organs. The activity data is expressed as mean SUV of the overall VOI.

SMILES	intact radiotracer in brain, of total activity [1]	intact radiotracer in plasma, of total activity [1]	intact radiotracer in brain, of total activity ([1]; listed as [18F]PPY2)	distribution of radiotracer binding in mouse brain [2]	fraction of total binding displaced by ZM241385 in striatum (specific binding) [2]	logD [3]	Stability in saline, PBS and n-octanol [4]	initial SUV in heart, spleen, stomach and liver [5]	specific binding in striatum in vivo (PET) [5]	SUV60 min bladder [5]	SUV60 min small intestine [5]	maximum SUV ratio of striatum-to-cerebellum [5]	initial brain uptake, standardized uptake value (SUV) [5]	initial uptake in striatum and cerebellum [5]
Nc1nc(-c2ccco2)c2cnn(Cc3ccccc3[18F])c2n1 [[^18F]PPY2]	83%	21%	more than 76%	observed in the striatum	62%	2.01 ± 0.16	proven	< 3 SUV	lack of specific binding	18.5 SUV	6.7 SUV	1.3	1.2–1.4 SUV	~ 1.3 SUV
Nc1nc(-c2ccco2)c2cnn(Cc3ccc([18F])cc3)c2n1 [[^18F]PPY1]	–	13%	–	displaceable binding was detected in various brain regions	42%	1.59 ± 0.15	proven	< 3 SUV	lack of specific binding	8.2 SUV	21.9 SUV	1.5	1.2–1.4 SUV	~ 1.3 SUV
